In the Kinase Knowledgebase extract (Sharma et al. 2016) one finds IC50 data, which are given here for one compound.

pIC50: −log10 of the molar value.

One experiment deals with PIK3CA (human) (UniProt P42336).
In another experiment the target is PIK3CB (Human) (UniProt P42338).

The term pIC50 denotes the IC50 on a negative log10 scale, so that one unit is a factor of ten. A high value points to a low IC50.

PIK3CA (human), sequence (P42336 whole entry, looked up): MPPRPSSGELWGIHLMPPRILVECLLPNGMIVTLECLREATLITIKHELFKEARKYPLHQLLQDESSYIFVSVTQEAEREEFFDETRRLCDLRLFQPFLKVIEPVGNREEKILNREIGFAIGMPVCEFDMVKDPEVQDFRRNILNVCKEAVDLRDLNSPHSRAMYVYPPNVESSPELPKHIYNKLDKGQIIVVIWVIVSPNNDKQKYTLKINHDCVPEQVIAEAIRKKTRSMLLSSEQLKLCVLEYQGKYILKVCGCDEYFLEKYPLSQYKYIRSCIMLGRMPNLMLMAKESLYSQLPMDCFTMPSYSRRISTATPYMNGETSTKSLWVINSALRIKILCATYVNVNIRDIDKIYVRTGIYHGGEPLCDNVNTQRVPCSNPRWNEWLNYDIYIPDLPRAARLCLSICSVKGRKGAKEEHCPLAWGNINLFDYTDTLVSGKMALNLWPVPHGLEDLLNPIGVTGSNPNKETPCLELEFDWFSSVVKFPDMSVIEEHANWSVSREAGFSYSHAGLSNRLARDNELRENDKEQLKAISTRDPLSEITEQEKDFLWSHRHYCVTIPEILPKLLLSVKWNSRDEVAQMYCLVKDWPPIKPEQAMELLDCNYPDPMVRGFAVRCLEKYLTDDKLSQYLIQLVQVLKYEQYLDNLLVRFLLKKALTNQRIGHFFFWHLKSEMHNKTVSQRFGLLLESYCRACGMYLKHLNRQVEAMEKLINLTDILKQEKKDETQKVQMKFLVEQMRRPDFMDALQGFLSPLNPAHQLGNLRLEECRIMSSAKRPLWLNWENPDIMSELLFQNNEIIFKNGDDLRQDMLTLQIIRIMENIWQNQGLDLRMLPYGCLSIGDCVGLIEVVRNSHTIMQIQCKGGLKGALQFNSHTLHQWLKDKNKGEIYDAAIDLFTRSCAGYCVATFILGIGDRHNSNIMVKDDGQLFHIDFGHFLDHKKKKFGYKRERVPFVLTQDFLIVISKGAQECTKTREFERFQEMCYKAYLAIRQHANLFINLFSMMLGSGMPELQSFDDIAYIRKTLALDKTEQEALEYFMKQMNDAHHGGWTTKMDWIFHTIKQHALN
PIK3CB (Human), sequence (P42338 whole entry, looked up): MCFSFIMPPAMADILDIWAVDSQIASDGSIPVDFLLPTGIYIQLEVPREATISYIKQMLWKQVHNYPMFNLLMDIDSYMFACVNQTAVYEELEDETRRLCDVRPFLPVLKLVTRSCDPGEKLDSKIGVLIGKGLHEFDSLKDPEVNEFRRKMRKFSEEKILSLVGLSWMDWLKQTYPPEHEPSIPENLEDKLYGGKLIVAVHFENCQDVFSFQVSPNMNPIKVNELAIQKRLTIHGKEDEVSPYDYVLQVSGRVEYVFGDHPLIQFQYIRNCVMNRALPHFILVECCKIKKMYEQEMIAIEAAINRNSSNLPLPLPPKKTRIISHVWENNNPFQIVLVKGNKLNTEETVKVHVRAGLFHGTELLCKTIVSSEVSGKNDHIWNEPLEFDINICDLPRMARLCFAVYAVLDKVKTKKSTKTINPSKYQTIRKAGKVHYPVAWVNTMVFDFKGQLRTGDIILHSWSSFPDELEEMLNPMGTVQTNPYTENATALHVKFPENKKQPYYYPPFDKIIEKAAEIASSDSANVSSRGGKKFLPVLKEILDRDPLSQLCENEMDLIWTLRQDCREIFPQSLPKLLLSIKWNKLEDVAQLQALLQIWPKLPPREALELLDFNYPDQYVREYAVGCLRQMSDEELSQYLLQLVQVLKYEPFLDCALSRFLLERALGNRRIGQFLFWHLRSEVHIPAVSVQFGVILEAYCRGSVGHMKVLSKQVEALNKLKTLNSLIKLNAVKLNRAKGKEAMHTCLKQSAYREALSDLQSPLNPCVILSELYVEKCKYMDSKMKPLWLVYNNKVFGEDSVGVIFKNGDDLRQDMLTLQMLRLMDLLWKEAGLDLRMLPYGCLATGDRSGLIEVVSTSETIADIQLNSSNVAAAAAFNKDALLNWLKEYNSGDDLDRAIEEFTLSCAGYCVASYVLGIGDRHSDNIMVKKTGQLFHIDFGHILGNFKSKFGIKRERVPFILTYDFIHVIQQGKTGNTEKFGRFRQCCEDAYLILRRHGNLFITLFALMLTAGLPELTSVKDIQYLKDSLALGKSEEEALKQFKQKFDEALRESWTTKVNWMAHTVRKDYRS

As for `Cc1ccc(S(=O)(=O)NCC(C)(C)O)cc1-c1cnc(N)c(-c2cnc(C3CC3)o2)c1`, the pIC50 at PIK3CA (human) is 6.55; on PIK3CB (Human), 5.89.
